The structures appear in SMILES notation. Bounds are passed on as bounds.

The test system of this test is BE(2)-C cell. Kind of test: Cell proliferation assay (MTS) in BE(2)-C cells. It is filed as cell-based. The settings on record: Homo sapiens, inhibition of BE(2)-C cell proliferation, 48 h. An outline of the steps:
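Proliferation read-out was MTS absorbance at 490 nm, with 650 nm as reference, after a 2 h MTS incubation, giving IC50 values. Before reading, BE(2)-C cells plated at 3000 per well were exposed to nine compound concentrations from 10000 down to 1.5 nM for 48 h at 37 °C, 5% CO2.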
As a reminder, the IC50 is the concentration needed to halve the response being measured. On to `Fc1cnc(Nc2ccc(CN3CC4(CNC4)C3)cn2)nc1-c1cc(F)c2nc3n(c2c1)[C@H](C(F)(F)F)CC3` [Example 67, (S)-N-(5-((2,6-diazaspiro[3.3]heptan-2-yl)methyl)pyridin-2-yl)-5-fluoro-4-(5-fluoro-1-(trifluoromethyl)-2,3-dihydro-1H-benzo[d]pyrrolo[1,2-a]imidazol-7-yl)pyrimidin-2-amine], for which the IC50 is greater than 100 nM. Regarding `CN1CC2(C1)CN(Cc1ccc(Nc3ncc(F)c(-c4cc(F)c5nc6n(c5c4)[C@H](C(F)(F)F)CC6)n3)nc1)C2` [Example 68, (S)-5-fluoro-4-(5-fluoro-1-(trifluoromethyl)-2,3-dihydro-1H-benzo[d]pyrrolo[1,2-a]imidazol-7-yl)-N-(5-((6-methyl-2,6-diazaspiro[3.3]heptan-2-yl)methyl)pyridin-2-yl)pyrimidin-2-amine], the 50% inhibitory concentration (IC50) was in the range of 10 to 100 nM. As for `CCN1CC2(C1)CN(Cc1ccc(Nc3ncc(F)c(-c4cc(F)c5nc6n(c5c4)[C@H](C(F)(F)F)CC6)n3)nc1)C2` [Example 69, (S)-N-(5-((6-ethyl-2,6-diazaspiro[3.3]heptan-2-yl)methyl)pyridin-2-yl)-5-fluoro-4-(5-fluoro-1-(trifluoromethyl)-2,3-dihydro-1H-benzo[d]pyrrolo[1,2-a]imidazol-7-yl)pyrimidin-2-amine], the figure is 10 to 100 nM; as for `Fc1cnc(Nc2ccc(CN3CCC4(CCNCC4)CC3)cn2)nc1-c1cc(F)c2nc3n(c2c1)[C@H](C(F)(F)F)CC3` [Example 70, (S)-N-(5-((3,9-diazaspiro[5.5]undecan-3-yl)methyl)pyridin-2-yl)-5-fluoro-4-(5-fluoro-1-(trifluoromethyl)-2,3-dihydro-1H-benzo[d]pyrrolo[1,2-a]imidazol-7-yl)pyrimidin-2-amine], greater than 1000 nM.

Turning to `CN1CCC2(CC1)CCN(Cc1ccc(Nc3ncc(F)c(-c4cc(F)c5nc6n(c5c4)[C@H](C(F)(F)F)CC6)n3)nc1)CC2` [Example 71, (S)-5-fluoro-4-(5-fluoro-1-(trifluoromethyl)-2,3-dihydro-1H-benzo[d]pyrrolo[1,2-a]imidazol-7-yl)-N-(5-((9-methyl-3,9-diazaspiro[5.5]undecan-3-yl)methyl)pyridin-2-yl)pyrimidin-2-amine], the concentration for half-maximal inhibition (IC50) fell in the range of 10 to 100 nM. The compound `CCN1CCC2(CC1)CCN(Cc1ccc(Nc3ncc(F)c(-c4cc(F)c5nc6n(c5c4)[C@H](C(F)(F)F)CC6)n3)nc1)CC2` [Example 72, (S)-N-(5-((9-ethyl-3,9-diazaspiro[5.5]undecan-3-yl)methyl)pyridin-2-yl)-5-fluoro-4-(5-fluoro-1-(trifluoromethyl)-2,3-dihydro-1H-benzo[d]pyrrolo [1,2-a]imidazol-7-yl)pyrimidin-2-amine] registered an IC50 of 10 to 100 nM. For the compound `Fc1cnc(Nc2ccc(CN3CC4CNCC4C3)cn2)nc1-c1cc(F)c2nc3n(c2c1)[C@H](C(F)(F)F)CC3` (some centres unmarked) [Example 73, 5-fluoro-4-((5)-5-fluoro-1-(trifluoromethyl)-2,3-dihydro-1H-benzo[d]pyrrolo[1,2-a]imidazol-7-yl)-N-(5-((hexahydropyrrolo[3,4-c]pyrrol-2(1H)-yl)methyl)pyridin-2-yl)pyrimidin-2-amine], the IC50 is greater than 100 nM. Take `CN1CC2CN(Cc3ccc(Nc4ncc(F)c(-c5cc(F)c6nc7n(c6c5)[C@H](C(F)(F)F)CC7)n4)nc3)CC2C1` (stereo partly drawn) [Example 74, 5-fluoro-4-((S)-5-fluoro-1-(trifluoromethyl)-2,3-dihydro-1H-benzo[d]pyrrolo[1,2-a]imidazol-7-yl)-N-(5-((5-methylhexahydropyrrolo[3,4-c]pyrrol-2(1H)-yl)methyl)pyridin-2-yl)pyrimidin-2-amine]: the IC50 is 10 to 100 nM. Compound `CCN1CC2CN(Cc3ccc(Nc4ncc(F)c(-c5cc(F)c6nc7n(c6c5)[C@H](C(F)(F)F)CC7)n4)nc3)CC2C1` (stereo partly drawn) [Example 75, N-(5-((5-ethylhexahydropyrrolo[3,4-c]pyrrol-2(1H)-yl)methyl)pyridin-2-yl)-5-fluoro-4-((S)-5-fluoro-1-(trifluoromethyl)-2,3-dihydro-1H-benzo[d]pyrrolo[1,2-a]imidazol-7-yl)pyrimidin-2-amine] came in with an IC50 of 10 to 100 nM. The compound `Fc1cnc(Nc2ccc(CN3C4CCC3CNC4)cn2)nc1-c1cc(F)c2nc3n(c2c1)[C@H](C(F)(F)F)CC3` [Example 76, N-(5-((3,8-diazabicyclo[3.2.1]octan-8-yl)methyl)pyridin-2-yl)-5-fluoro-4-((S)-5-fluoro-1-(trifluoro-methyl)-2,3-dihydro-1H-benzo[d]pyrrolo[1,2-a]imidazol-7-yl)pyrimidin-2-amine] returned an IC50 of 10 to 100 nM.

`CN1CC2CCC(C1)N2Cc1ccc(Nc2ncc(F)c(-c3cc(F)c4nc5n(c4c3)[C@H](C(F)(F)F)CC5)n2)nc1` [Example 77, 5-fluoro-4-((S)-5-fluoro-1-(trifluoromethyl)-2,3-dihydro-1H-benzo[d]pyrrolo[1,2-a]imidazol-7-yl)-N-(5-((3-methyl-3,8-diazabicyclo[3.2.1]octan-8-yl)methyl)pyridin-2-yl)pyrimidin-2-amine] registered an IC50 of 10 to 100 nM. For the compound `CCN1CC2CCC(C1)N2Cc1ccc(Nc2ncc(F)c(-c3cc(F)c4nc5n(c4c3)[C@H](C(F)(F)F)CC5)n2)nc1` [Example 78, N-(5-((3-ethyl-3,8-diazabicyclo[3.2.1]octan-8-yl)methyl)pyridin-2-yl)-5-fluoro-4-((S)-5-fluoro-1-(trifluoromethyl)-2,3-dihydro-1H-benzo[d]pyrrolo [1,2-a]imidazol-7-yl)pyrimidin-2-amine], the IC50 fell in the range of 10 to 100 nM. For `Fc1cnc(Nc2ccc(CN3CC4CCC(C3)N4)cn2)nc1-c1cc(F)c2nc3n(c2c1)[C@H](C(F)(F)F)CC3` [Example 79, N-(5-((3,8-diazabicyclo[3.2.1]octan-3-yl)methyl)pyridin-2-yl)-5-fluoro-4-((S)-5-fluoro-1-(trifluoro-methyl)-2,3-dihydro-1H-benzo[d]pyrrolo[1,2-a]imidazol-7-yl)pyrimidin-2-amine], the IC50 was in the range of 10 to 100 nM. As for `CN1C2CCC1CN(Cc1ccc(Nc3ncc(F)c(-c4cc(F)c5nc6n(c5c4)[C@H](C(F)(F)F)CC6)n3)nc1)C2` [Example 80, 5-fluoro-4-((S)-5-fluoro-1-(trifluoromethyl)-2,3-dihydro-1H-benzo[d]pyrrolo[1,2-a]imidazol-7-yl)-N-(5-((8-methyl-3,8-diazabicyclo[3.2.1]octan-3-yl)methyl)pyridin-2-yl)pyrimidin-2-amine], the figure is 10 to 100 nM. As to `CCN1C2CCC1CN(Cc1ccc(Nc3ncc(F)c(-c4cc(F)c5nc6n(c5c4)[C@H](C(F)(F)F)CC6)n3)nc1)C2` [Example 81, N-(5-((8-ethyl-3,8-diazabicyclo[3.2.1]octan-3-yl)methyl)pyridin-2-yl)-5-fluoro-4-((S)-5-fluoro-1-(trifluoromethyl)-2,3-dihydro-1H-benzo[d]pyrrolo [1,2-a]imidazol-7-yl)pyrimidin-2-amine], the IC50 was 10 to 100 nM. `C[C@@H]1CCc2nc3c(F)cc(-c4nc(Nc5ccc(CN6CCNCC6)cn5)ncc4F)cc3n21` [Example 82, (R)-5-fluoro-4-(5-fluoro-1-methyl-2,3-dihydro-1H-benzo[d]pyrrolo[1,2-a]imidazol-7-yl)-N-(5-(piperazin-1-ylmethyl)pyridin-2-yl)pyrimidin-2-amine] yielded an IC50 of 10 to 100 nM. `C[C@@H]1CCc2nc3c(F)cc(-c4nc(Nc5ccc(CN6CCN7CCC[C@@H]7C6)cn5)ncc4F)cc3n21` [Example 85, 5-fluoro-4-((R)-5-fluoro-1-methyl-2,3-dihydro-1H-benzo[d]pyrrolo[1,2-a]imidazol-7-yl)-N-(5-(((R)-hexahydropyrrolo[1,2-a]pyrazin-2(1H)-yl)methyl)pyridin-2-yl)pyrimidin-2-amine] gave an IC50 of 10 to 100 nM. In turn, `C[C@@H]1CCc2nc3c(F)cc(-c4nc(Nc5ccc(CN6CCC7(CC6)CNC7)cn5)ncc4F)cc3n21` [Example 86, (R)-N-(5-((2,7-diazaspiro[3.5]nonan-7-yl)methyl)pyridin-2-yl)-5-fluoro-4-(5-fluoro-1-methyl-2,3-dihydro-1H-benzo[d]pyrrolo[1,2-a]imidazol-7-yl)pyrimidin-2-amine] had an IC50 greater than 100 nM.

`C[C@@H]1CCc2nc3c(F)cc(-c4nc(Nc5ccc(CN6CCC7(CC6)CN(C)C7)cn5)ncc4F)cc3n21` [Example 87, (R)-5-fluoro-4-(5-fluoro-1-methyl-2,3-dihydro-1H-benzo[d]pyrrolo[1,2-a]imidazol-7-yl)-N-(5-((2-methyl-2,7-diazaspiro[3.5]nonan-7-yl)methyl)pyridin-2-yl)pyrimidin-2-amine] registered an IC50 of 10 to 100 nM. As for `CCN1CC2(CCN(Cc3ccc(Nc4ncc(F)c(-c5cc(F)c6nc7n(c6c5)[C@H](C)CC7)n4)nc3)CC2)C1` [Example 88, (R)-N-(5-((2-ethyl-2,7-diazaspiro[3.5]nonan-7-yl)methyl)pyridin-2-yl)-5-fluoro-4-(5-fluoro-1-methyl-2,3-dihydro-1H-benzo[d]pyrrolo[1,2-a]imidazol-7-yl)pyrimidin-2-amine], the figure is 10 to 100 nM; as for `C[C@@H]1CCc2nc3c(F)cc(-c4nc(Nc5ccc(CN6CC7(CCNCC7)C6)cn5)ncc4F)cc3n21` [Example 89, (R)-N-(5-((2,7-diazaspiro[3.5]nonan-2-yl)methyl)pyridin-2-yl)-5-fluoro-4-(5-fluoro-1-methyl-2,3-dihydro-1H-benzo[d]pyrrolo[1,2-a]imidazol-7-yl)pyrimidin-2-amine], greater than 100 nM.

For the compound `C[C@@H]1CCc2nc3c(F)cc(-c4nc(Nc5ccc(CN6CC7(CCN(C)CC7)C6)cn5)ncc4F)cc3n21` [Example 90, (R)-5-fluoro-4-(5-fluoro-1-methyl-2,3-dihydro-1H-benzo[d]pyrrolo[1,2-a]imidazol-7-yl)-N-(5-((7-methyl-2,7-diazaspiro[3.5]nonan-2-yl)methyl)pyridin-2-yl)pyrimidin-2-amine], the IC50 was 10 to 100 nM. The compound `CCN1CCC2(CC1)CN(Cc1ccc(Nc3ncc(F)c(-c4cc(F)c5nc6n(c5c4)[C@H](C)CC6)n3)nc1)C2` [Example 91, (R)-N-(5-((7-ethyl-2,7-diazaspiro[3.5]nonan-2-yl)methyl)pyridin-2-yl)-5-fluoro-4-(5-fluoro-1-methyl-2,3-dihydro-1H-benzo[d]pyrrolo[1,2-a]imidazol-7-yl)pyrimidin-2-amine] came in with an IC50 of 10 to 100 nM.
